Legend:
[1] = target: T1, Solute carrier organic anion transporter family member 1A1 (Rattus norvegicus, UniProt P46720); experiment: (§1) TP_TRANSPORTER: inhibition of E217betaG uptake in Xenopus laevis oocytes; assay type: functional, cell-based, Oocyte
T1 sequence (P46720 whole entry): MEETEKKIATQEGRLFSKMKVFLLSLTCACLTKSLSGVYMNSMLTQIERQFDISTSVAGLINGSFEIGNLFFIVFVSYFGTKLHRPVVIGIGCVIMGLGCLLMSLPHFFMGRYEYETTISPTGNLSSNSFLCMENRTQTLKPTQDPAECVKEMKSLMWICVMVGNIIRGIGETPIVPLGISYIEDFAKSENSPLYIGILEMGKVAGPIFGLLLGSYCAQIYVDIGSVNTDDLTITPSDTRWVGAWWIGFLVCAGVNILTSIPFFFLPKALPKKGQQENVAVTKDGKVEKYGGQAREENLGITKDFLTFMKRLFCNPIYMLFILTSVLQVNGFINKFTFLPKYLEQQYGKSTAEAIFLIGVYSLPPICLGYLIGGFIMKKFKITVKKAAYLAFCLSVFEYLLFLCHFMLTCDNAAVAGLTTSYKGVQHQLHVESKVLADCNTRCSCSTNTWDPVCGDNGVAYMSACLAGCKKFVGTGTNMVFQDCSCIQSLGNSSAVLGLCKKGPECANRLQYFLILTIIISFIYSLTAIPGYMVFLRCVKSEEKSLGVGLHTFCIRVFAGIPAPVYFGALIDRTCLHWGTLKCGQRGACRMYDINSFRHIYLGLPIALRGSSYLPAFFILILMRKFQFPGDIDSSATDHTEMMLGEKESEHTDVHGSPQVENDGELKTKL

[2] = target: T2, Solute carrier organic anion transporter family member 1A4 (Rattus norvegicus, UniProt O35913); experiment: as §1; assay type: functional, cell-based, Oocyte
T2 sequence (O35913 whole entry): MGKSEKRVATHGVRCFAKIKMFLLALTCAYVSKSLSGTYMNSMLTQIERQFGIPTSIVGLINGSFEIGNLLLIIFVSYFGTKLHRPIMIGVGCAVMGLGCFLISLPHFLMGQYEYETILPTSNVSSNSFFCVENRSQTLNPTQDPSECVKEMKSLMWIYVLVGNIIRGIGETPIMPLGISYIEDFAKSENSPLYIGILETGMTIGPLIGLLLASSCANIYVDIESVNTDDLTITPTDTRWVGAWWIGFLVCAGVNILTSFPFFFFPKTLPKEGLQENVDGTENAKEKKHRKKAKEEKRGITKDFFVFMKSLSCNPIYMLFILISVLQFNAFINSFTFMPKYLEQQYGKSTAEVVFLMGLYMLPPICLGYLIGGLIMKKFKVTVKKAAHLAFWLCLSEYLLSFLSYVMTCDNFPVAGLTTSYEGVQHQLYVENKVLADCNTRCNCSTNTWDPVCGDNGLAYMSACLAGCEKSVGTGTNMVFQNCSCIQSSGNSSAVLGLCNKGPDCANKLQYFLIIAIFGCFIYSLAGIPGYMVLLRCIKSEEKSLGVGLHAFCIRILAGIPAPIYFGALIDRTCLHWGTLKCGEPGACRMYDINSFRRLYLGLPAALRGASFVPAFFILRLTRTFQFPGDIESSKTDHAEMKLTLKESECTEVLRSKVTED

Row | Ki [1] [µM] | Ki [2] [µM] | Compound
1 | 6.6 | 7.3 | CO[C@H]1/C=C/O[C@@]2(C)Oc3c(C)c(O)c4c(O)c(cc(O)c4c3C2=O)NC(=O)/C(C)=C\C=C\[C@H](C)[C@H](O)[C@@H](C)[C@@H](O)[C@@H](C)[C@H](OC(C)=O)[C@@H]1C [RIFAMYCIN]
2 |  | 1.4 | CO[C@H]1/C=C/O[C@@]2(C)Oc3c(C)c(O)c4c(O)c(c(/C=N/N5CCN(C)CC5)c(O)c4c3C2=O)NC(=O)/C(C)=C\C=C\[C@H](C)[C@H](O)[C@@H](C)[C@@H](O)[C@@H](C)[C@H](OC(C)=O)[C@@H]1C [RIFAMPIN]

From ChEMBL document CHEMBL2073820, “Rifamycin SV and rifampicin exhibit differential inhibition of the hepatic rat organic anion transporting polypeptides, Oatp1 and Oatp2” (Hepatology, 2000)
